Results as given in ChEMBL document CHEMBL1201862, “PubChem BioAssay data set” (2004).
The source made the active and inactive calls.

Experiments:
[1] = target: SUMO E1/E2 (Homo sapiens, UniProt P63279+Q9UBE0+Q9UBT2); experiment: SAR analysis of SUMOylation using HTRF in an in-Vitro dose response assay. [Related pubchem assays (depositor defined):AID2006, AID2011, AID2018, AID2069, AID2658]; type: functional
[2] = cytotoxicity toward NIH3T3 fibroblasts, dose response, counter-screen, cell-based, ATP luminescence, mouse fibroblasts (AID 2010); type: functional;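 note: cells exposed to compound for about 90 hours before reading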
[3] = inhibitors of intracellular T. cruzi replication, confirmation, NIH3T3 host cells, beta-gal luminescence (AID 2044); type: functional, cell-based;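 note: intracellular parasites grown in NIH/3T3 mouse fibroblasts as host cells; luminescent beta-galactosidase reporter signal from transgenic T. cruzi replicating inside host cells; inhibitors lower the luminescence signal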
[4] = target: T1, Tyrosine-protein phosphatase non-receptor type 7 (Homo sapiens, UniProt P35236); type: functional
T1 sequence (P35236 whole entry): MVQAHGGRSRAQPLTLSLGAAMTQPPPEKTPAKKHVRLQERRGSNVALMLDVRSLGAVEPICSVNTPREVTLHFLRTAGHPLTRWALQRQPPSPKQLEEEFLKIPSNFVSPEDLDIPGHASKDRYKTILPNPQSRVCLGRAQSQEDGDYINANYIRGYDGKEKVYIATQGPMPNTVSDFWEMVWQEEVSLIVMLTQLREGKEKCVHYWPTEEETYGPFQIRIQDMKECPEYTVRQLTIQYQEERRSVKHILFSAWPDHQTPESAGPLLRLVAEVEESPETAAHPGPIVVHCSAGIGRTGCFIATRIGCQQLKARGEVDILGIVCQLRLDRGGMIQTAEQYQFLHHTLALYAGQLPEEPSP

[5] = target: T2, Tyrosine-protein phosphatase non-receptor type 22 (Homo sapiens, UniProt Q9Y2R2); type: functional
T2 sequence (Q9Y2R2 whole entry): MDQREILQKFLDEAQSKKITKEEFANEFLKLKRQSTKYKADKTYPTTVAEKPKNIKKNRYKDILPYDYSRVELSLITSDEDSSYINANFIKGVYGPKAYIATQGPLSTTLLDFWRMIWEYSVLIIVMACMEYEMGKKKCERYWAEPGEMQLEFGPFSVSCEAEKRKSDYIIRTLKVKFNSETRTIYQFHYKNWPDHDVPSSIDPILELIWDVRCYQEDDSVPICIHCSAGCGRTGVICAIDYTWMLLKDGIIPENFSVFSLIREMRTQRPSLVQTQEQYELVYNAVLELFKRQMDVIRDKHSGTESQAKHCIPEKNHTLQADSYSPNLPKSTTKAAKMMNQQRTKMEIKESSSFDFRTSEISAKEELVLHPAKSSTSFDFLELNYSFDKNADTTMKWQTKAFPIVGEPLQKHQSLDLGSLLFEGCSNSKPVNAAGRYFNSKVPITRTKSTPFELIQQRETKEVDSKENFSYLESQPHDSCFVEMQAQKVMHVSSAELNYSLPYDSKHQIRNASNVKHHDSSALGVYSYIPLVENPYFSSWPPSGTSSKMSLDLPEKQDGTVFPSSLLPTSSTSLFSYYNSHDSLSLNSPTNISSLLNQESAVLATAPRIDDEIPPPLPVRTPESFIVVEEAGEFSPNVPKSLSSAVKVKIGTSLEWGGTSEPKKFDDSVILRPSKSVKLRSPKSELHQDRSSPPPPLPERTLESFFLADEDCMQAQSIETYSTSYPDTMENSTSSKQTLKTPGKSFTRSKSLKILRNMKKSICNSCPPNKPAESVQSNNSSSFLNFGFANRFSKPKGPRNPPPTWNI

[6] = target: T2, Tyrosine-protein phosphatase non-receptor type 22; type: functional; remark: listed apart in the source
[7] = target: T3, Intestinal-type alkaline phosphatase (Homo sapiens, UniProt P09923); experiment: inhibition of human intestinal alkaline phosphatase – biochemical, dose response (AID 488876); type: functional
[8] = target: Intestinal-type alkaline phosphatase (Mus musculus, UniProt P24822); experiment: PubChem AID 488785; type: functional
[9] = target: T4, Alkaline phosphatase, tissue-nonspecific isozyme (Homo sapiens, UniProt P05186); experiment: TNAP enzyme inhibition by screening hits, dose response, selectivity assay for mouse IAP inhibitor project, biochemical, human TNAP, uHTS hits (AID 488906); type: functional
T4 sequence (P05186 whole entry): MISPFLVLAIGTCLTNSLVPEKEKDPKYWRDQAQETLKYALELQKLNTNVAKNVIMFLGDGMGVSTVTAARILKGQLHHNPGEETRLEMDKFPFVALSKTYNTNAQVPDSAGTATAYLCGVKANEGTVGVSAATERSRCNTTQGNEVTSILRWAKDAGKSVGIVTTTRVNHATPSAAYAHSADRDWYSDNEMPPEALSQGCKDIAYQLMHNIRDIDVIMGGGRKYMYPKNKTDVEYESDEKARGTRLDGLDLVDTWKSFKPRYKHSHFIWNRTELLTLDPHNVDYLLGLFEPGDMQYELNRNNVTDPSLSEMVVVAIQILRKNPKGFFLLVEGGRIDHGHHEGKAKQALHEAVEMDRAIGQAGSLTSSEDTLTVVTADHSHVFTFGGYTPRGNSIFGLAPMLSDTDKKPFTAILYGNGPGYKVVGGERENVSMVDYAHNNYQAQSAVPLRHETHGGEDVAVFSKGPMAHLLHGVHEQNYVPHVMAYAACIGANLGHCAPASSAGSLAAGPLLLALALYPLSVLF

[10] = target: T5, Kappa-type opioid receptor (Homo sapiens, UniProt P41145); type: functional
[11] = target: Beta-galactosidase (Escherichia coli, UniProt Q8VNN2); type: functional
[12] = target: T6, Delta-type opioid receptor (Homo sapiens, UniProt P41143); experiment: HTS Image-Based Screen for Agonists of the DOR Receptor. [Related pubchem assays (depositor defined):AID1777, AID1786, AID2133]; type: functional
[13] = target: T5, Kappa-type opioid receptor; type: functional; remark: listed apart in the source
[14] = target: T6, Delta-type opioid receptor; experiment: HTS Image-Based Screen for Antagonists of the DOR Receptor. [Related pubchem assays (depositor defined):AID1777, AID1785, AID1786, AID2133]; type: functional
[15] = target: Mu-type opioid receptor (Homo sapiens, UniProt P35372); experiment: HTS Image-Based Screen for Agonists of the MOR Receptor. [Related pubchem assays (depositor defined):AID1777, AID1785, AID1786, AID2133]; type: functional;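 note: imaging of beta-arrestin GFP recruitment into spots after receptor activation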
[16] = system: HeLa; experiment: HeLa cell cytotoxicity, dose response, cytotoxicity control, 24 h, cherry-picked samples (AID 504726); type: functional, cell-based; details: Homo sapiens;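 note: potency for cytotoxicity as loss of luminescence signal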
[17] = target: T7, ORF 73 (Human herpesvirus 8, UniProt O40947); experiment: inhibitors of C-LANA binding to LBS DNA, dose response, biochemical, fluorescence polarization, cherry-picked samples (AID 504725); design: species or system Human gammaherpesvirus 8;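 note: fluorescence polarization of a labeled DNA duplex reporting LANA DNA binding; potency is for inhibitors that block LANA binding to the DNA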
T7 sequence (O40947 whole entry): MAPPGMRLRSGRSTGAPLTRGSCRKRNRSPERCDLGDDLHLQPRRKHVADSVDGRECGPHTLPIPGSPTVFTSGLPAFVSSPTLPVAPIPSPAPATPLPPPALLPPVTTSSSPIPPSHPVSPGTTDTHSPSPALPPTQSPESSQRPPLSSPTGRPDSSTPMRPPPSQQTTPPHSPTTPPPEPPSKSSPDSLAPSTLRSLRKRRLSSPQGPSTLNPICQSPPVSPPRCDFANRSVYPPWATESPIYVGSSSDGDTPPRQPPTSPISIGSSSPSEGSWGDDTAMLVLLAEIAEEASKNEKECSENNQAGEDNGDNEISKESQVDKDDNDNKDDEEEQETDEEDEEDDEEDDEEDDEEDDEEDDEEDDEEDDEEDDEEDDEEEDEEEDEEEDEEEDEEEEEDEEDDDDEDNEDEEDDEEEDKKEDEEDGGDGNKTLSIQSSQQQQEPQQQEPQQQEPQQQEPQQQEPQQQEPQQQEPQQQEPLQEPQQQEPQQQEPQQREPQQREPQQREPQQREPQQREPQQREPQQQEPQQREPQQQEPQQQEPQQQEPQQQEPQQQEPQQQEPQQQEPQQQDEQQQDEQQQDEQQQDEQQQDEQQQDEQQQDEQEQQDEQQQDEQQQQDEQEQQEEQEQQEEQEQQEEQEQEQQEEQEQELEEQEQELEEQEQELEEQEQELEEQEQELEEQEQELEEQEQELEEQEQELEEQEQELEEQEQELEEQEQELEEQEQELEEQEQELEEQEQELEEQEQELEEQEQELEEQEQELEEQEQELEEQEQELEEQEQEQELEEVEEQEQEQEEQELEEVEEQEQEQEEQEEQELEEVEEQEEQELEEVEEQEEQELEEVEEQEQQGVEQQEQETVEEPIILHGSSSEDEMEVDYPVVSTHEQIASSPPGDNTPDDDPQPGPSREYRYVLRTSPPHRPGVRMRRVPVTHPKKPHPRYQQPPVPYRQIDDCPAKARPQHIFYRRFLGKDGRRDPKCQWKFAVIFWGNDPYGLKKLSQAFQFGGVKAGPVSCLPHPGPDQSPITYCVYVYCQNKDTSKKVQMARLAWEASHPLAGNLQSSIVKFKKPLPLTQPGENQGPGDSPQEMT

[18] = target: T4, Alkaline phosphatase, tissue-nonspecific isozyme; experiment: TNAP enzyme activators, dose response, selectivity assay for mouse IAP activator project, biochemical, TNAP isozyme, mouse IAP uHTS hits (AID 488880); type: functional
[19] = target: Large T antigen (Simian virus 40, UniProt P03070); type: functional, Betapolyomavirus macacae;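 note: Confirmatory-stage PubChem screen for compounds that inhibit SV40 T antigen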
[20] = target: T3, Intestinal-type alkaline phosphatase; experiment: activation of human intestinal alkaline phosphatase – biochemical, dose response (AID 488873); type: functional
[21] = target: T1, Tyrosine-protein phosphatase non-receptor type 7; experiment: HePTP (PTPN7) phosphatase inhibitor potency, SAR follow-up, biochemical, set 2 (AID 449736); type: functional
[22] = target: T2, Tyrosine-protein phosphatase non-receptor type 22; experiment: LYP (PTPN22) phosphatase inhibitor potency, SAR follow-up, biochemical, pCAP fluorogenic substrate, fluorescence, set 3 (AID 449727); type: functional
[23] = target: T2, Tyrosine-protein phosphatase non-receptor type 22; experiment: SAR LYP1 Fluorescent Assay using OMFP substrate for In Vitro dose response studies - Set 2. [Related pubchem assays (depositor defined):AID1779, AID1784, AID2140, AID449726, AID488869]; type: functional
[24] = target: T2, Tyrosine-protein phosphatase non-receptor type 22; experiment: SAR LYP1 Fluorescent Assay using OMFP substrate for In Vitro dose response studies - Set 3. [Related pubchem assays (depositor defined):AID1779, AID1784, AID2140, AID2686]; type: functional
[25] = target: Tyrosine-protein phosphatase non-receptor type 12 (Homo sapiens, UniProt Q05209); experiment: SAR Selectivity Analysis of small molecule inhibitors of PEST using pCAP in a fluorescence assay. [Related pubchem assays (depositor defined):AID1779, AID1784, AID2135]; type: functional
[26] = target: T2, Tyrosine-protein phosphatase non-receptor type 22; experiment: SAR LYP1 Fluorescent Assay using pCAP substrate for In Vitro dose response studies - Set 2. [Related pubchem assays (depositor defined):AID1779, AID1784, AID2135, AID449727]; type: functional
[27] = target: Lysine-specific demethylase 4C (Homo sapiens, UniProt Q9H3R0); experiment: GASC-1 (JMJD2C) histone demethylase inhibitors, dose response, biochemical, DELFIA europium, cherry-picked samples (AID 488835); type: functional
[28] = target: Lysine-specific demethylase 4A (Homo sapiens, UniProt O75164); experiment: JMJD2A histone demethylase inhibitors, dose response, selectivity assay for GASC-1 inhibitor project, biochemical, DELFIA europium, cherry-picked samples (AID 488840)
[29] = target: T8, Sentrin-specific protease 8 (Homo sapiens, UniProt Q96LD8); type: functional
T8 sequence (Q96LD8 whole entry): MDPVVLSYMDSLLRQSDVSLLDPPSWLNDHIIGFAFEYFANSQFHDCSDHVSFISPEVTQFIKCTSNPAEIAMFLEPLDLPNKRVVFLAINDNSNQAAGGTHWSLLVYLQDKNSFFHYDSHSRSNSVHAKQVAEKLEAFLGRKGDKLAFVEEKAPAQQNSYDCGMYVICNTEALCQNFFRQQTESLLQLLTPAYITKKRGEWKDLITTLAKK

[30] = target: T8, Sentrin-specific protease 8; type: functional; remark: listed apart in the source

T5 sequence (P41145 whole entry): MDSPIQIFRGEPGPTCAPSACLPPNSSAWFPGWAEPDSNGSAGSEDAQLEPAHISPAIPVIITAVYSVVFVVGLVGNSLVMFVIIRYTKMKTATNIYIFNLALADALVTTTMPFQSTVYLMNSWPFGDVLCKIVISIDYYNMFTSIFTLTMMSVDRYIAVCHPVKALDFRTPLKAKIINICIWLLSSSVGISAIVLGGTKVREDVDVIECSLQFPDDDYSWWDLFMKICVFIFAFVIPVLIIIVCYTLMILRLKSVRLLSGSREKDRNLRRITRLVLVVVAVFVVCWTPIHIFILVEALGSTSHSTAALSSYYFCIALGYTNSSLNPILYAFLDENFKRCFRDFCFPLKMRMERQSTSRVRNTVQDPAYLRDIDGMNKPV
T3 sequence (P09923 whole entry): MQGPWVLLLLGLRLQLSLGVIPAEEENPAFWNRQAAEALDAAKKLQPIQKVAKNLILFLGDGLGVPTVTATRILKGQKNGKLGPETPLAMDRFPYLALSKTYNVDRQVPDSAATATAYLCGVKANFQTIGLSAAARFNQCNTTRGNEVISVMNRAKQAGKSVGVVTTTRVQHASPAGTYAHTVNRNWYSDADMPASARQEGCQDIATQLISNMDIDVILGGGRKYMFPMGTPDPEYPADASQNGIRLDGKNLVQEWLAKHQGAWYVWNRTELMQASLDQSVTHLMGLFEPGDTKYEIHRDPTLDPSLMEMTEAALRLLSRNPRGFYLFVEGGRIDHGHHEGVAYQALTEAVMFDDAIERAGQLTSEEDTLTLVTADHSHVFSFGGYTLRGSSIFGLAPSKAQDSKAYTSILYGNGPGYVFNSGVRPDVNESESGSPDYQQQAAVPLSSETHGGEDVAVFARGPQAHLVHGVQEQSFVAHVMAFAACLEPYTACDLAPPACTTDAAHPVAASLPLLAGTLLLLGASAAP
Intestinal-type alkaline phosphatase (Mus musculus, UniProt P24822), sequence (P24822 whole entry): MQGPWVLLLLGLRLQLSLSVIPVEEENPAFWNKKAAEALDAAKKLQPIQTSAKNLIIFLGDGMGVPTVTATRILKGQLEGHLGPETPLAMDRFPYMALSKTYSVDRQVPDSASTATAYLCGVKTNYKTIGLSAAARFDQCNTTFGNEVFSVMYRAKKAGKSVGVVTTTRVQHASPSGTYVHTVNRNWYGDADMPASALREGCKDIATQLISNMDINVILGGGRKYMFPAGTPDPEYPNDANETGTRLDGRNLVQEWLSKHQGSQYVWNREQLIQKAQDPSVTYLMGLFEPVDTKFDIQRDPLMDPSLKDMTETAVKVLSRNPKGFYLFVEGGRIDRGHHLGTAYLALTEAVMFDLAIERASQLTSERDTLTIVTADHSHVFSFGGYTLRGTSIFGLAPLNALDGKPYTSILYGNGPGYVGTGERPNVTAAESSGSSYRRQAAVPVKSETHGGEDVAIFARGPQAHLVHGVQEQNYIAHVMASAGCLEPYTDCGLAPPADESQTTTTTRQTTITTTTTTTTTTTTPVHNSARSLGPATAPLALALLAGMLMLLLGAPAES
T6 sequence (P41143 whole entry): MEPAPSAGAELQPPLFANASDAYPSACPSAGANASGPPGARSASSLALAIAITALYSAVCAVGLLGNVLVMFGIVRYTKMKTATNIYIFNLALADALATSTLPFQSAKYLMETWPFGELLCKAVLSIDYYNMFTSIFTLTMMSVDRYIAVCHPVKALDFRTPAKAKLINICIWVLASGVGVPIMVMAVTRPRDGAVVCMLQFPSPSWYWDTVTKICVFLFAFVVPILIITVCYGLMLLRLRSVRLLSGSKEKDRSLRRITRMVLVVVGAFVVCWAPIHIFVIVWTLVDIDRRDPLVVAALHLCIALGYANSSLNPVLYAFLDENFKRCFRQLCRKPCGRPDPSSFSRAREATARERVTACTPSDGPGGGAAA
Large T antigen, sequence (P03070 whole entry): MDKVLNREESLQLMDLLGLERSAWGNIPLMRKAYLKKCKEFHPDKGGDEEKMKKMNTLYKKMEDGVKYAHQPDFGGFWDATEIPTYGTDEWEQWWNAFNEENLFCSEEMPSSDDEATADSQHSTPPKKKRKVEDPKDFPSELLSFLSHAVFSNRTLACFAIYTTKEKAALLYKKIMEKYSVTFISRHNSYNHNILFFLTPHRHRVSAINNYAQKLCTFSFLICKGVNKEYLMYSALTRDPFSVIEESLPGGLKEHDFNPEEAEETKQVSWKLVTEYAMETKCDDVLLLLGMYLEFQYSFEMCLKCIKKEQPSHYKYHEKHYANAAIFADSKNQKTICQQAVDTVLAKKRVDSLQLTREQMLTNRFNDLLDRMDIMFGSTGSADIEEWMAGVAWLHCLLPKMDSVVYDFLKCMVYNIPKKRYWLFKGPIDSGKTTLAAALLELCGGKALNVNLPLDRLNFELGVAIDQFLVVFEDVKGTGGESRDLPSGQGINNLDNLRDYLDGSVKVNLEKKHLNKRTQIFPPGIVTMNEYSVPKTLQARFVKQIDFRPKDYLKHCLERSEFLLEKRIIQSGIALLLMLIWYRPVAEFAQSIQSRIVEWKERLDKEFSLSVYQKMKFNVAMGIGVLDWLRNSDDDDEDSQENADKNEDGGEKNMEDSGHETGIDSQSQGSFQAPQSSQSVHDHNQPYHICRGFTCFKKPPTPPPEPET
Lysine-specific demethylase 4A, sequence (O75164 whole entry): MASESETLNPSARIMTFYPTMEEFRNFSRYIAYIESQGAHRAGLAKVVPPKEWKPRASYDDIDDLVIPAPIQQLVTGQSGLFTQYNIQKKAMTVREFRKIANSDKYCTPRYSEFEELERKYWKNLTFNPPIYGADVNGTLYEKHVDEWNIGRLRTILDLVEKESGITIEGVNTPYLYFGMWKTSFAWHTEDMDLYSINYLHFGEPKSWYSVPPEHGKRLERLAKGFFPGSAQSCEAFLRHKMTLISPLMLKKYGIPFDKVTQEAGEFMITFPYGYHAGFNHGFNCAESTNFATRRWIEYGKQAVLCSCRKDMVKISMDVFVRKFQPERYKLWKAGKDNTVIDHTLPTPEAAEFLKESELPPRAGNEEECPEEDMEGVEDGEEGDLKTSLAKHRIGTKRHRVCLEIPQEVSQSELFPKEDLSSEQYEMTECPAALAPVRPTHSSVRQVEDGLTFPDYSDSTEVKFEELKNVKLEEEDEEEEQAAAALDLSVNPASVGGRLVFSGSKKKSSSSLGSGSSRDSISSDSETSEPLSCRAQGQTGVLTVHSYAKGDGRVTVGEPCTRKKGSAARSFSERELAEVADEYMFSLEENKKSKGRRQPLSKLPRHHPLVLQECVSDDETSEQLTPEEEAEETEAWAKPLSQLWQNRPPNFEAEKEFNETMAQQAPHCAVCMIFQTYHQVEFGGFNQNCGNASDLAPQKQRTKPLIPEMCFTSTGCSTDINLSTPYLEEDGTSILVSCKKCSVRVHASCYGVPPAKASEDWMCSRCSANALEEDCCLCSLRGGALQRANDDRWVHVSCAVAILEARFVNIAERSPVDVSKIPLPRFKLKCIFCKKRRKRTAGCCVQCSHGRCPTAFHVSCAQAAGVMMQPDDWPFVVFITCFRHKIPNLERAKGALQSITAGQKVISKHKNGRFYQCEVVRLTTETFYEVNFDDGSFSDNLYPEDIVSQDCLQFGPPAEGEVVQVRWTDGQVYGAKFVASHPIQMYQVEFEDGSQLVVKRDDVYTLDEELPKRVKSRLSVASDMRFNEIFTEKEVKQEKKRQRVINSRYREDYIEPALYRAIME
Mu-type opioid receptor, sequence (P35372 whole entry): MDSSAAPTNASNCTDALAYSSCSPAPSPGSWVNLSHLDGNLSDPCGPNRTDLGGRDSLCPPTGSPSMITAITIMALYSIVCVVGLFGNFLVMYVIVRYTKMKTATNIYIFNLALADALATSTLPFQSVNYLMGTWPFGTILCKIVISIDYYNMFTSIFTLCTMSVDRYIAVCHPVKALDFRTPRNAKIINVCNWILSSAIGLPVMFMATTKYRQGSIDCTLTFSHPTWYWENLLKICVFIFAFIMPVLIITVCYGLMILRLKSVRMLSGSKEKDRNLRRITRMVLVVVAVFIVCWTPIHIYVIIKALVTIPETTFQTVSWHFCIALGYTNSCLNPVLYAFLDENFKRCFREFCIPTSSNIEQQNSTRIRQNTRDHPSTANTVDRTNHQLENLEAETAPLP
Tyrosine-protein phosphatase non-receptor type 12, sequence (Q05209 whole entry): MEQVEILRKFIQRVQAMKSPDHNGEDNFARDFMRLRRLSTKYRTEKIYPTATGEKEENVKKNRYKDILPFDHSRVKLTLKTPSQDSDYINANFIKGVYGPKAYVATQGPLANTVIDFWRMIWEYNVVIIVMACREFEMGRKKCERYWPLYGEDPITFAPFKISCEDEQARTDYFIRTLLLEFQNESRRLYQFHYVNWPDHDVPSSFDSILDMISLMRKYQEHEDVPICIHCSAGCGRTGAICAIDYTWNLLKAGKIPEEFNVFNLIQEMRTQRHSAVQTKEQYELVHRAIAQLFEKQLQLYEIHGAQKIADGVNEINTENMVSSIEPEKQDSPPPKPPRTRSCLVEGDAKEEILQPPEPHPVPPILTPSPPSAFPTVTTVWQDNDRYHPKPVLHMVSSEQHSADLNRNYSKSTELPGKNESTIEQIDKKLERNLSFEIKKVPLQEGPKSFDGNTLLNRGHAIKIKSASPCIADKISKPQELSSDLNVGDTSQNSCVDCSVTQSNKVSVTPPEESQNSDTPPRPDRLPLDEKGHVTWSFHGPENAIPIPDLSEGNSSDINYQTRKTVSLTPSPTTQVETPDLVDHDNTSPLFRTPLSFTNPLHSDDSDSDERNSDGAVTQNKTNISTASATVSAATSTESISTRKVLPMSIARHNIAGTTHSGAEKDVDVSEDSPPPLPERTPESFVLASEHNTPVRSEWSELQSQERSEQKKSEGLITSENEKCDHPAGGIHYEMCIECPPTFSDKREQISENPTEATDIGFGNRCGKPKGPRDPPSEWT

Cc1ccc(O)c(N=Cc2cccs2)c1
IC50 [1]: > 100 µM (inactive)

CCCCOc1ccc(CN2CCCCC2)cc1
EC50 [2]: > 30 µM (not active)
EC50 [3]: 1.2 µM (active)
IC50 [4]: > 79.4 µM (inactive)
IC50 [5]: > 79.4 µM (inactive)
IC50 [6]: > 79.4 µM (inactive)

O=C(O)CNS(=O)(=O)c1ccc2c3c(cccc13)C(=O)N2
IC50 [7]: > 100 µM (inactive)
IC50 [8]: 8.43 µM (active)
IC50 [9]: 85.4 µM (active)

COc1ccc(-c2csc(Cc3nc(O)cs3)n2)cc1
IC50 [10]: > 32 µM
EC50 [11]: > 31.5 µM (inactive)
EC50 [12]: > 32 µM (inactive)
IC50 [13]: 7.92 µM (active)
IC50 [14]: > 32 µM (inactive)
EC50 [15]: > 32 µM (inactive)

N=C1/C(=C\c2ccc(O)c(O)c2)C(=O)N=C2SC(CC(=O)N3CCCCC3)=NN12
AC50 [16]: 267 µM (active)
AC50 [17]: 2.44 µM (active)
IC50 [8]: 6.98 µM (active)
EC50 [18]: 21.5 µM (active)
IC50 [19]: 1.92 µM (active)
EC50 [20]: 21.3 µM (active)

O=C(O)COc1ccc(C=NNC(=O)c2ccccc2Br)cc1
IC50 [21]: > 100 µM (inactive)
IC50 [22]: > 100 µM (inactive)
IC50 [23]: > 100 µM (inactive)
IC50 [24]: > 100 µM (inactive)
IC50 [25]: 66.3 µM (active)
IC50 [26]: > 100 µM (inactive)

CN1C(=O)C(Cc2ccsc2)C(=O)N(C)C1=O
AC50 [27]: 3.65 µM (active)
AC50 [28]: 8.7 µM (active)
IC50 [29]: 29.2 µM (active)
IC50 [30]: 33.6 µM (active)
